According to US6927215B2, “Heterocyclic fluoroalkenyl thioethers and the use thereof as pesticides (I)” (Bayer Cropscience AG, priority 2000, dated 2005):

How the values were obtained:
[1] = tested on: Trichinella spiralis larvae; test: Trichinella spiralis in-vitro; format: cell-based; parameters: key: 0 means no activity; 1 means weak activity; 2 means good activity; 3 means full activity; conditions: 5 days at 19° C.
Method: Trichinella spiralis In-vitro
• Test animals: Trichinella spiralis larvae • Solvent: dimethyl sulphoxide
Trichinella spiralis larvae are isolated from skeletal muscles and subcutaneous muscles of SPF/CFW1 mice and collected in aqueous 0.9% NaCl containing 20 μg of sisomycin/ml. Per determination, 20 larvae are incubated in 2 ml of a nutrient solution (20 g of Bacto Casitone/l, 10 g of yeast extract/l, 5 g of glucose/l, 0.8 g of KH2PO4/l, 0.8 g of K2HPO4; […] of sisomycin/ml and 1 μg of Canesten/ml; pH=7.2).
The incubation and the determination have been described in Martin et al., Pesticide Science (1996) 48, 343-349. 10 mg of the test compound are dissolved in 0.5 ml of the stated solvent, and such an amount of the resulting solution is added to the incubation medium that the desired concentration is reached. The controls contain only the solvent.
After an incubation time of 5 days at a temperature of 19° C., the experiment is terminated. The anthelmintic activity of a substance is categorized into 4 stages. 0 means no activity, 1 means weak activity, 2 means good activity and 3 means full activity (<50%, 50-75%, >75%, 100% of the larvae dead).

[2] = tested on: Boophilus microplus resistant (SP-resistant Parkhurst strain); test: Test with Boophilus microplus resistant (SP-resistant Parkhurst strain), injection, oviposition of fertile eggs; format: in vivo
Method: (§1) Test with Boophilus Microplus Resistant (SP—Resistant Parkhurst Strain)
(§2) • Test animals: adult females which have sucked themselves full • Solvent: dimethyl sulphoxide
20 mg of active compound are dissolved in 1 ml of dimethyl sulphoxide, more dilute concentrations are prepared by dilution in the same solvent.
The test is carried out in 5 replications. 1 μl of the solutions is injected into the abdomen, and the animals are transferred into dishes and kept in a climatized room. After 7 days, the activity is checked by examination for oviposition of fertile eggs. Eggs whose fertility is not visible from the outside are stored in glass tubes in a controlled-environment cabinet until the larvae have hatched. An activity of 100% means that no tick has produced any fertile eggs.

Lucilia cuprina larvae = test: Blowfly larvae test (development-inhibitory action); format: in vivo
Method: Blowfly Larvae Test (Development-Inhibitory Action)
• Test animals: Lucilia cuprina larvae • Solvent: dimethyl sulphoxide
(§3) 20 mg of active compound are dissolved in 1 ml of dimethyl sulphoxide, more dilute concentrations are prepared by dilution with distilled water.
About 20 Lucilia cuprina larvae are introduced into a test tube which contains about 1 cm^3 of horse meat and 0.5 ml of the preparation of active compound to be tested. After 24 hours and 48 hours, the efficacy of the preparation of active compound is determined. The test tubes are transferred into a beaker whose bottom is covered with sand. After a further 2 days, the test tubes are removed and the pupae are counted.
The efficacy of the preparation of active compound is assessed by the number of flies that have hatched after 1.5 times the period of development of an untreated control. 100% means that no flies have hatched; 0% means that all flies have hatched normally.

[3] = tested on: adults of Ctenocephalides felis; test: Test with cat fleas/oral uptake; format: in vivo; conditions: after 28 h
Method: Test with Cat Fleas/Oral Uptake
• Test animals: adults of Ctenocephalides felis • Solvent: dimethyl sulphoxide (DMSO)
To produce a suitable formulation, a suitable solution of active compound is prepared from 20 mg of active compound and 1 ml of DMSO. 15 μl of this formulation are added to 3 ml of citrated cattle blood and stirred.
10 unfed adult fleas (Ctenocephalides felis, strain “Georgi”) are placed into a chamber (Ø3.2 cm) whose top and bottom are closed with gauze. A metal cylinder whose underside is covered with parafilm is placed onto the chamber. The cylinder contains 3 ml of blood/active compound formulation which can be taken up by the fleas through the parafilm membrane. Whereas the blood is warmed to 37° C., the temperature in the area of the flea chambers is adjusted to 25° C. Controls are mixed with the same volume of DMSO, without addition of a compound. The determinations are carried out in triplicate.
After 28 h, the mortality in % (=dead fleas) is determined.
Compounds which effect an at least 25% kill of the fleas within 28 h are judged to be effective.

logP (pH2) = format: physicochemical
[4] = tested on: larvae of the mustard beetle (Phaedon cochleariae); test: Phaedon larvae test; format: in vivo; conditions: active compound concentration 0.1%; after 7 days
Method: (§4) • Solvent: 30 parts by weight of dimethylformamide • Emulsifier: 1 part by weight of alkylaryl polyglycol ether
(§5) To produce a suitable preparation of active compound, 1 part by weight of active compound is mixed with the stated amounts of solvent and emulsifier, and the concentrate is diluted with emulsifier-containing water to the desired concentration.
Cabbage leaves (Brassica oleracea) are treated by being dipped into the preparation of active compound of the desired concentration and are populated with larvae of the mustard beetle (Phaedon cochleariae) while the leaves are still moist.
After the desired period of time, the kill in % is determined. 100% means that all beetle larvae have been killed; 0% means that none of the beetle larvae have been killed.

[5] = tested on: greenhouse red spider mite (Tetranychus urticae); test: Tetranychus test (OP-resistant/dip treatment); format: in vivo; conditions: active compound concentration 0.1%; after 7 days
Method: Tetranychus Test (OP-Resistant/Dip Treatment)
as §4, §5
Bean plants (Phaseolus vulgaris) which are heavily infested by all stages of the greenhouse red spider mite (Tetranychus urticae) are dipped into a preparation of active compound of the desired concentration.
After the desired period of time, the effect in % is determined. 100% means that all spider mites have been killed; 0% means that none of the spider mites have been killed.

[6] = tested on: peach aphid (Myzus persicae); test: Myzus test; format: in vivo; conditions: active compound concentration 0.1%; after 6 days
Method: as §4, §5
Cabbage leaves (Brassica oleracea) which are heavily infested by the peach aphid (Myzus persicae) are treated by being dipped into the preparation of active compound of the desired concentration.
After the desired period of time, the kill in % is determined. 100% means that all aphids have been killed; 0% means that none of the aphids have been killed.

[7] = tested on: adult Musca domestica, Reichswald strain (OP, SP, carbamate-resistant); test: Test with flies (Musca domestica); format: in vivo; conditions: active compound concentration 100 ppm
Method: Test with Flies (Musca domestica)
• Test animals: adult Musca domestics, Reichswald strain (OP, SP, carbamate-resistant) • Solvent: dimethyl sulphoxide
as §3
2 ml of this active compound preparation are pipetted onto filter paper discs (Ø9.5 cm) in petri dishes of corresponding dimensions. After the filter discs have been dried, 25 test animals are transferred into the petri dishes, which are then covered.
After 1, 3, 5, 24 and 48 hours, the activity of the active compound preparation is determined. 100% means that all flies have been killed; 0% means that none of the flies have been killed.

[8] = tested on: Boophilus microplus resistant (SP-resistant Parkhurst strain); test: Test with Boophilus microplus resistant (SP-resistant Parkhurst strain), dipping; format: in vivo; conditions: active compound concentration 100 ppm; dipped for 1 minute
Method: as §1, §2, §3
10 adult Boophilus microplus res. are dipped for 1 minute into the preparation of active compound to be tested. The animals are transferred into plastic beakers and kept in a climatized room, and the kill rate is then determined.
100% means that all ticks have been killed; 0% means that none of the ticks have been killed.

[9] = tested on: caterpillars of the army worm (Spodoptera frugiperda); test: Spodoptera frugiperda test; format: in vivo; conditions: active compound concentration 0.1%; after 7 days
Method: Spodoptera frugiperda Test
as §4, §5
Cabbage leaves (Brassica oleracea) are treated by being dipped into the preparation of active compound of the desired concentration and are populated with caterpillars of the army worm (Spodoptera frugiperda) while the leaves are still moist.
After the desired period of time, the kill in % is determined. 100% means that all caterpillars have been killed; 0% means that none of the caterpillars have been killed.

[10] = tested on: Meloidogyne incognita egg/larvae; test: Meloidogyne test; format: in vivo; conditions: active compound concentration 20 ppm; lettuce
Method: • Solvent: 8 parts by weight of acetone • Emulsifier: 1 part by weight of alkylaryl polyglycol ether
To produce a suitable preparation of active compound, 1 part by weight of active compound is mixed with the stated amounts of solvent and emulsifier, and the concentrate is diluted with water to the desired concentration.
Containers are filled with sand, solution of active compound, Meloidogyne incognita egg/larvae suspension and lettuce seeds. The lettuce seeds germinate and the plants develop. On the roots, galls are formed.
After the desired period of time, the nematicidal action is determined in % using gall formation as a measure. 100% means that no galls were found; 0% means that the number of galls on the treated plants corresponds to that of the untreated control.

[11] = active compound concentration 100 ppm
[12] = 0.8 μg per animal, injection, after 7 days
[13] = 4 μg per animal, injection, after 7 days
[14] = 20 μg per animal, injection, after 7 days
[15] = active compound concentration 20 ppm
[16] = active compound concentration 4 ppm, injection, after 7 days
[17] = active compound concentration 20 ppm, injection, after 7 days

Row | SMILES | anthelmintic activity class (larvae dead) [1, 11] | kill (no fertile eggs) [2, 12] [%] | kill (no fertile eggs) [2, 13] [%] | kill (no fertile eggs) [2, 14] [%] | kill (no fertile eggs) [2, 11] [%] | kill (no flies hatched) (Lucilia cuprina larvae; [11]) [%] | kill (mortality) [3, 15] [%] | kill (mortality) [3, 11] [%] | logP (pH2) (logP (pH2)) | kill (no fertile eggs) [2, 16] [%] | kill (no fertile eggs) [2, 17] [%] | other results
1 | CC1SC(SCCC=C(F)F)=NS1(=O)=O (racemic) [Example 8] | no activity | 100 | 100 | 100 | 100 | 100 | 79 | 91 |  |  |  | 
2 | O=S1(=O)CCSC(SCCCCC=C(F)F)=N1 [Example 6] | no activity | 100 | 100 | 100 | 100 | 100 | 73 | 95 |  |  |  | 
3 | CC1SC(SCCCCC(F)=C(F)F)=NS1(=O)=O (racemic) [Example 9] |  |  |  |  |  |  |  |  | 3.24 |  |  | 
4 | O=S1(=O)CCCSC(SCCCCC=C(F)F)=N1 [Example 16] | no activity | 100 | 100 | 100 | 100 |  | 89 | 91 |  |  |  | 
5 | O=S1(=O)CSC(SCCCCC=C(F)F)=N1 [Example 4] | no activity |  |  |  |  |  |  | 100 | 2.99 | 100 | 100 | kill [4]: 100%; kill [5]: 100%; kill [6]: 100%; kill [7]: 40%; kill [8]: 100%
6 | O=S1(=O)CSC(SCCC=C(F)F)=N1 [Example 2] |  |  |  |  |  |  |  | 100 | 2.24 | 100 | 100 | kill [4]: 100%; kill [9]: 100%; nematicidal action (activity) using gall formation as a measure [10]: 100%; kill [6]: 100%; kill [7]: 60%; kill [8]: 90%
7 | O=S1(=O)CSC(SCCCCC(F)=C(F)F)=N1 [Example 3] |  |  |  |  |  | 100 |  |  | 2.93 | 100 | 100 | anthelmintic activity class (larvae dead) ([1]; active compound concentration 10 ppm): weak activity (1 means weak activity); kill (no flies hatched) (Lucilia cuprina larvae; [15]): 100%
8 | CC1SC(SCCCCC=C(F)F)=NS1(=O)=O (racemic) [Example 10] | no activity | 100 | 100 | 100 | 100 | 100 | 83 | 95 | 3.31 |  |  | 
9 | O=S1(=O)CCSC(SCCC=C(F)F)=N1 [Example 11] | no activity | 100 | 100 | 100 |  |  |  |  |  |  |  | 
10 | O=S1(=O)CCCSC(SCCC(F)=C(F)F)=N1 [Example 13] |  | 100 | 100 | 100 |  |  |  |  |  |  |  | 
11 | O=S1(=O)CSC(SCCC(F)=C(F)F)=N1 [Example 1, 5-(4,4,3-trifluorobutenylthio)-1,3,4-dithiazoline 3,3-dioxide] |  |  |  |  |  | 100 |  |  |  | 100 | 100 | kill (no flies hatched) (Lucilia cuprina larvae; [15]): 100%; nematicidal action (activity) using gall formation as a measure [10]: 100%; melting point: 50 °C
